Laboratory results reported in patent publication US11464749B2, “Bismuth-thiol compositions and methods of use” (Microbion Corporation, priority 2018, dated 2022).
Values after ≈ are worked out from the molar mass of the structure shown. Like-named read-outs stand apart in the source and are kept apart here.

Legend:
C. glabrata = test: Broth microdilution MIC, yeast (Example 11); type: cell-based; conditions: Nakaseomyces glabratus, FLU^R
[1] = Aerosol testing of BisEDT suspension formulations (aerosol concentration, particle size); type: physicochemical; conditions: Lot # ED268-1-11-01; 25 mg/mL formulation
Text: Objective: The objective of this study was to develop methods for the nose-only inhalation exposures of BisEDT for rodents. The aerosols were generated from suspension formulations of BisEDT in aqueous media (0.5% TWEEN 80® in Sodium Phosphate Buffer, pH 7.4). […] Suspension formulations were created by sonication with neat API with 0.5% TWEEN 80® in Sodium Phosphate Buffer, pH 7.4. This was further refined by adjusting the vehicle to an osmolality of 300 mOsmol/kg. Aerosols were characterized for particle size distribution and aerosol concentration. Aerosol concentration was determined by differential mass and chemical analysis of the aerosol filter samples.
Aerosol Methods: Formulation—Suspension formulations of BisEDT were prepared in 0.5% TWEEN 80® in Sodium Phosphate Buffer, pH 7.4. Suspensions of 2.5, 10, 25, 50, 75 and 100 mg/mL were prepared by sonication with a Covaris sonicator. In later tests, the vehicle was adjusted with sodium chloride to achieve an Osmolality of 300 mOsmol/kg. Suspensions were prepared at 2.5, 50, and 100 mg/mL.
Aerosol concentration was measured at the breathing zone of the exposure system by collection of the aerosol onto 47-mm filters (Whatman GF/A membrane filters). Filter samples were collected at a nominal flowrate of 0.3 L/min. Aerosol mass concentration was determined by differential weight analysis of the filter samples. […]

E. coli ATCC 25922 = conditions: control strain ATCC 25922; per CLSI M100-S24 or provided by Microbion; cited from earlier work
Burkholderia spp. = conditions: initial MIC testing
B. cenocepacia = test: Broth microdilution MIC (Example 10); conditions: initial MIC testing
Escherichia coli = conditions: E. coli MMX 102 (ATCC 25922); CLSI QC ranges shown in parenthesis; cited from earlier work

## CC(S)C(C)S.[Bi] (centres unmarked) [BisBDT, bismuth-2,3-butanedithiol]
C. glabrata; 24 h, C. glabrata MMX 7086
  MIC: 0.5 µg/mL
C. glabrata; 24 h, C. glabrata MMX 7318
  MIC: 0.25 µg/mL
C. glabrata; 48 h, C. glabrata MMX 7086
  MIC: 1 µg/mL
C. glabrata; 48 h, C. glabrata MMX 7318
  MIC: 0.5 µg/mL

## C1C[S][Bi]([S]CC[S][Bi]2[S]CC[S]2)[S]1 [BisEDT, bismuth-1,2-ethanedithiol]
[1]
  BisEDT Aerosol Conc., average of all extracted concentrations incl. outlier filter: 64.4 µg/L
E. coli ATCC 25922
  Expected MIC: goal (acceptable range): 1 (0.5-2) mcg/mL

## C[C@@H](O)[C@H]1C(=O)N2C(C(=O)O)=C(S[C@@H]3CN[C@H](C(=O)N(C)C)C3)[C@H](C)[C@H]12 [MEM]
Burkholderia spp.; B. multivorans isolate 1580 (CIP-R)
  MIC: 2 µg/mL (≈ 5.22 µM)
Burkholderia spp.; B. multivorans isolate 1791
  MIC: 4 µg/mL (≈ 10.4 µM)
Burkholderia spp.; B. multivorans isolate 1795 (MEM-I, CIP-R)
  MIC: 8 µg/mL (≈ 20.9 µM)
Burkholderia spp.; B. multivorans isolate 5665 (CIP-I)
  MIC: 2 µg/mL (≈ 5.22 µM)
Burkholderia spp.; B. multivorans isolate 8952 (CIP-I)
  MIC: 2 µg/mL (≈ 5.22 µM)
B. cenocepacia; B. cenocepacia isolate 0548 (CIP-R)
  MIC: 4 µg/mL (≈ 10.4 µM)
B. cenocepacia; B. cenocepacia isolate 0813 (CPI-I)
  MIC: 2 µg/mL (≈ 5.22 µM)
B. cenocepacia; B. cenocepacia isolate 1631
  MIC: 4 µg/mL (≈ 10.4 µM)
B. cenocepacia; B. cenocepacia isolate 1783
  MIC: 4 µg/mL (≈ 10.4 µM)
B. cenocepacia; B. cenocepacia isolate 8555
  MIC: 4 µg/mL (≈ 10.4 µM)

## C[C@@H](O)[C@H]1C(=O)N2C(C(=O)O)=C(S[C@@H]3CN[C@H](C(=O)N(C)C)C3)[C@H](C)[C@H]12 [Meropenem, reference compound]
Escherichia coli
  CLSI QC range of MIC: (0.008-0.06) μg/mL
